The target of data set [1] is T1, Recombinant human cathepsin L (Homo sapiens, UniProt P07711).
T1 construct: made in house
Kind of data set: Recombinant cathepsin inhibition, gel-based competition with GB123 probe. It is filed as biochemical. The settings on record: Table S2; three independent competition gel-based experiments; read-out: CTSL (IC50). The method, then:
(§1) In-gel fluorescence analysis was used to detect the residual activity of the cathepsins by applying pan-cathepsin probe GB123 to detect the stable enzyme–probe complex. This approach is used for testing inhibition and selectivity.[37],[41]
(§2) Recombinant human cathepsin L (0.5 μM), cathepsin B (0.5 μM), cathepsin K (0.5 μM), and cathepsin S (0.5 μM) were pretreated with different concentrations of inhibitors (GD compounds, odanacatib) for 1 h in reaction buffer (50 mM acetate, 2 mM dithiothreitol (DTT), and 5 mM MgCl2, pH 5.5) at 37 °C. GB123 (1 μM) was added and incubated with samples for 60 min at 37 °C.[37],[41] The reaction was stopped by the addition of sample buffer 4× (40% glycerol, 0.2 M Tris/HCl pH 6.8, 20% β-mercaptoethanol, 12% SDS, and 0.4 mg/mL bromophenol blue). Samples were then boiled, separated on a 12.5% SDS gel, and scanned for fluorescence by a Typhoon scanner FLA 9500 at excitation and emission wavelengths of 635 and 670 nm for GB123.
(§3) graphs were generated in GraphPad Prism software.

The target of data set [2] is T2, Recombinant human cathepsin B (Homo sapiens, UniProt P07858).
T2 construct: made in house
Described as above. It is filed as biochemical. The settings on record: Table S2; three independent competition gel-based experiments; read-out: CTSB (IC50). As for the experimental part: as §1, §2, §3

In data set [3] the target is T3, Recombinant human cathepsin K (Homo sapiens, UniProt P43235).
T3 construct: made in house
T3 sequence (P43235 115-329): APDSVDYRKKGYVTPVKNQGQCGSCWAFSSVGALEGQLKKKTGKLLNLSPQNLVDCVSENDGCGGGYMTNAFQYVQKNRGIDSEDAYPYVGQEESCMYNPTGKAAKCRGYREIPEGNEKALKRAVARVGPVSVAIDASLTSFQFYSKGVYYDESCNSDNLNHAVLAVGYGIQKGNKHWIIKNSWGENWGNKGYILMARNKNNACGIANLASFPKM
The data set is described as above. It is filed as biochemical. The settings on record: for concentration at which significant CTSK inhibition starts: Figure S5, recombinant CTSK. The method, then:
as §1, §2, §3

For data set [4], the target named is T4, endogenous matured CTSK in intact U2-OS and U-87 MG cells (Homo sapiens, UniProt P43235).
T4 construct: endogenous in cells; host or cells: U2-OS and U-87 MG
T4 sequence (P43235 115-329): T3 sequence (P43235 115-329)
Kind of data set: Competition assay in intact cells, GB123 labeling. It is filed as cell-based. The settings on record: escalating doses. As for the experimental part: Two cell lines, human osteosarcoma U2-OS and human glioblastoma U-87 MG, that naturally express CTSK along with other lysosomal cathepsins, were chosen to evaluate the inhibitors’ potency and selectivity.[43],[44] First, the intact cells were incubated for various durations with escalating doses of the inhibitors, and the ODN was used as a control. The residual cathepsin activity in the cells was detected by adding a pan-cathepsin ABP, GB123, after which the cells were lysed. The probe-labeled enzymes were then separated and visualized using fluorescent SDS-PAGE (Figures 5a,b and S7).[45] In both cells, the activity of several cathepsins was detected, while the fluorescent band at approximately 25 kDa was correlated to CTSK by immunoblotting (shown below in Figure 5a, b). The identity of each labeled band was detected by immunoblotting (Figure S7).[45] A selective dose-dependent suppression of CTSK activity was obtained in a range of inhibitor concentrations.
Figure 5 Direct inhibition of endogenous matured CTSK in intact U2-OS and U-87 MG cells. (a) Intact U2-OS cells were treated with DMSO, ODN, or increasing concentrations of the inhibitors GD20 or GD38 in their culture medium for 2 h. Cells were then treated with GB123 (5 μM) for 2 h, lysed, and separated by SDS-PAGE, followed by fluorescent scanning of the gel using a Typhoon scanner at 635/670 nm. An immunoblot of CTSK of the same gel is presented below. Different cathepsins are marked by colored arrowheads; a red arrowhead marks mature CTSK. s. ch. = single chain, h. ch. = heavy chain.[45] (b) Intact U-87 MG cells were treated with the inhibitor, followed by GB123, as described in panel (a).
U-87 MG and U2-0S cells (5 × 10^5 cells/well) were seeded in a six-well plate 1 day before treatment. […] Proteins were quantified by bicinchoninic acid (BCA, Thermo Scientific); an equal quantity of proteins was prepared for all samples, and after the addition of sample buffer, the lysates were boiled for 10 min, centrifuged, and separated by 12.5% SDS-PAGE. […]

The test system of data set [5] is human osteoclasts. Kind of data set: Cell viability assay (methylene blue). It is filed as cell-based. The settings on record: different concentrations, 48 h. As for the experimental part: […]
Cell viability assay: U2-OS, U-87 MG, or enriched monocyte cells were grown at 37 0C with 5% of CO2 in the respective medium as described previously. Cells were seeded (1500 cells/well in 96 wells plate) one day before the incubation with indicated inhibitor s at various concentrations. After 48 h, cells were fixed, and viability was measured by quantita tive colorimetric assay using methylene blue according to the procedure reported by Ben -Bassat et al.9 The data were expressed as a percentage of control; data represent the mean of 2 experiments with triplicates for each treatment (± standard deviation).
Figure S10. Cell viability assay. a) U2-OS and, b) U-87 MG were incubated with the different concentrations of indicated inhibitors. After a 48 h incubation cells were fixed, and viability was measured by methylene blue assay.The data were expressed as a percentage of control; data represent the mean of 2 experiments with triplicates for each treatment (± SD). Statistical differences were evaluated by two -tailed Student’s t -test from two independent experiments.
Student’s t -test was non-significant except for samples indicated with *, P <0.05 and **, P <0.01. (c) Human osteoclasts were incubated with the different concentrations of indicated inhibitors. After a 48 h incubation cells were fixed, and viability was measured by methylene […]
(also on this page, place not known: t-test non -significant t-test 0 20 40 60 80 100 120 (0.5 µM)(5 µM)(1 µM)(5 µM)(1 µM) (0.5 µM) ODNGD38GD38GD38GD20GD20GD20 (0.5 µM) Cell viability (% of control) Concentration of compound) […]
(1 picture or pasted object on this page, not shown here)

Where [6] appears, read: Figure 4b IC50 curves, recombinant CTSK 0.5 μM, read-out: IC50 for inhibiting CTSK activity.

Where two headings read alike, the source gives them in different places.

T1 sequence (P07711 114-333): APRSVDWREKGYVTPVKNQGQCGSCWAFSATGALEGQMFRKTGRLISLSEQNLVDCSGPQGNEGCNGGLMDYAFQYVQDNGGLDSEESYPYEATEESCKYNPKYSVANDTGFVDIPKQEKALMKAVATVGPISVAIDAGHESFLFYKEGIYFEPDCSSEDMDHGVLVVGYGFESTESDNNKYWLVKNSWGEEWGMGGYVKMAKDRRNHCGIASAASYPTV

Regarding `CC(C)C[C@H](N[C@@H](c1ccc(-c2ccc(S(C)(=O)=O)cc2)cc1)C(F)(F)F)C(=O)NCC(=O)COC(=O)[C@@H]1CCCN1C(=O)[C@H](CC(C)C)NC(=O)OCC1c2ccccc2-c2ccccc21` [GD20], the 50% inhibitory concentration (IC50) in data set [1] was over 10000 nM; in data set [2], over 10000 nM; in data set [3] (setting [6]) it was 460 ± 77 nM. Also, in data set [3], the “concentration at which significant CTSK inhibition starts” value is 0.25 µM. Also, the “inhibition of CTSK and selectivity over other cathepsins in intact cells, in words” value (shortened to “inhibition of CTSK and selectivity”) in data set [4] is given as “very selective at all concentrations tested”. The “cell viability (% of control) vs control” value in data set [5] is “no significant differences”.
On to `CC(C)C[C@H](N[C@@H](c1ccc(-c2ccc(S(C)(=O)=O)cc2)cc1)C(F)(F)F)C(=O)NCC(=O)COC(=O)[C@@H]1CCCN1C(=O)[C@H](CCC(N)=O)NC(=O)OCC1c2ccccc2-c2ccccc21` [GD38], for which the IC50 was over 10000 nM in data set [1]; over 10000 nM in data set [2]; 210 ± 27 nM in data set [3] (setting [6]); 200 ± 20 nM in data set [3] (Table S2, three independent competition gel-based experiments, read-out: CTSK (IC50)). The “concentration at which significant CTSK inhibition starts” value in data set [3] stood at 0.062 µM. The “inhibition of CTSK and selectivity” value in data set [4] is “slightly reduced the activity of other cathepsins at high concentrations and longer incubation times”. The “cell viability (% of control) vs control” value in data set [5] is “no significant differences”.
As for `CC(C)(F)C[C@H](N[C@@H](c1ccc(-c2ccc(S(C)(=O)=O)cc2)cc1)C(F)(F)F)C(=O)NC1(C#N)CC1` [ODN, odanacatib, reference compound], the IC50 in data set [1] is over 10000 nM; in data set [2] it was over 10000 nM; in data set [3] (Table S2, value in nM, read-out: CTSK (IC50)), 350 ± 0.05 nM. Moreover, in data set [4], the “inhibition of CTSK and selectivity” value is “could not detect”. Further, the “cell viability (% of control) vs control” value in data set [5] is “no significant differences”.

Source of the values: PMC11938014, “Development and Application of Small Molecule–Peptide Conjugates as Cathepsin K-Specific Covalent Irreversible Inhibitors in Human Osteoclast and Lung Cancer” (JACS Au, 2025).
